The target of one assay is T1, Human recombinant MMP-1 (Homo sapiens, UniProt P03956).
T1 construct: made in house; host or cells: MMP-1-transfected HT-1080 cells (spent media)
T1 sequence (P03956 100-469): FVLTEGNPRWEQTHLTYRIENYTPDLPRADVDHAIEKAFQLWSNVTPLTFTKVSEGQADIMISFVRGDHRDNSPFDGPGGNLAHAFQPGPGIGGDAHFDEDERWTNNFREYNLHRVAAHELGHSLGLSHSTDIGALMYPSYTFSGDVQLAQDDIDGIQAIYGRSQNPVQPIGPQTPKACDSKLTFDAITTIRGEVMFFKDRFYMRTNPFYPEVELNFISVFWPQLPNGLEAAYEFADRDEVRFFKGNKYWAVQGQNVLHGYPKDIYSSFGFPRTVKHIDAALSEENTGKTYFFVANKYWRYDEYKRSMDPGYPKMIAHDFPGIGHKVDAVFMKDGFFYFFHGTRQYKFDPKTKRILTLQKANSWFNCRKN
Briefly: In vitro MMP inhibition analysis (fluorogenic peptide substrate cleavage), Ki. The class given is biochemical. The protocol: (§1) Several compounds and salts were analyzed in an in vitro assay to determine their ability to inhibit the MMP cleavage of peptide substrates. Inhibition constant (Ki) were calculated from the assayed compound-MMP interactions.
(§2) Human recombinant MMP-1, MMP-2, MMP-9, MMP-13, and MMP-14 were used in this assay. All enzymes were prepared in Assignee's laboratories following usual laboratory procedures. Protocols for the preparation and use of these enzymes are available in the scientific literature. See, e.g., Enzyme Nomenclature (Academic Press, San Diego, Calif., 1992) (and the citations therein). See also, Frije et al., J. Biol. Chem., 26(24), 16766-73 (1994).
The MMP-1 proenzyme was purified from the spent media of MMP-1-transfected HT-1080 cells provided by Dr. Harold Welgus of Washington University (St. Louis, Mo.). The protein was purified on a zinc chelating column.
(§3) All MMPs were activated using 4-aminophenylmercuric acetate (“APMA”, Sigma Chemical, St. Louis, Mo.) or trypsin. MMP-9 also was activated using human recombinant MMP-3 (purified in Assignee's laboratory following standard cloning and purification techniques).
(§4) The following fluorogenic, methoxycoumarin-containing polypeptide substrate (I) was used in the MMP inhibition assays: MCA-ArgProLeuGlyLeuDpaAlaArgGluArgNH2 (I) “MCA” is 7-methoxycoumarin-4-yl acetyl. Substrate (I) was prepared Assignee's laboratory. In the absence of MMP inhibitory activity, the substrate is cleaved at the Gly-Leu peptide bond. This cleavage separates the highly fluorogenic peptide from the 2,4-dinitrophenyl quencher, thus resulting in increase of fluorescent intensity.
(§5) The stock solutions of the assayed compounds and salts were prepared in […] (DMSO). These stock solutions were diluted in Buffer A (100 mM Tris-HCl, 100 mM NaCl, 10 mM CaCl2, 0.05% polyoxyethylene 23 lauryl ether, pH 7.5) to obtain solutions with different compound concentrations, i.e., assay solutions with different concentrations of the assayed […] compound. The experiment controls contained the same amount of Buffer A/DMSO as the assayed sample, but contained none of the tested compound or salt.
(§6) The assays from which the Ki determinations were made were performed as follows. The assayed compound samples were incubated in separate wells of untreated white polystyrene plates (Nunc Nalgene International, Rochester, N.Y.), and analyzed on a Tecan SpectraFlour Plus plate reader. The excitation wavelength was 330 nm, and the emission wavelength—420 nm. All samples (assayed compounds and controls) were incubated in separate plate wells at room temperature for 1 hr in the presence of 4 μM of MMP substrate (I). In the absence of MMP inhibitory activity, substrate (I) was cleaved at the Gly-Leu bond resulting in an increase of relative fluorescence. Inhibition was observed as a reduced rate of this increase in relative fluorescence. […] This protocol is a modification of method by Knight et al., FEBS Lett., 296(3), 263-266 (1992). Apparent inhibitory constants were determined by non-linear regression of reaction velocity as a function of inhibitor and enzyme concentration using Morrison's equation, as described by Kuzmic, Anal. Biochem. 286, 45-50 (2000). Modifications were made in the non-linear regression method to allow a common control reaction rate and effective enzyme concentration to be shared between all dose-response relationships on a given assay plate. Since the substrate concentration was chosen to be at or below the Km, the apparent Ki's from this analysis were reported as Ki's without correction for the influence of substrate.
The above protocols were used to determine Ki constants for the compounds in Examples 2-35 above. All Ki values in Table 1 are given in nM units.

The next assay has as its target T2, Human recombinant MMP-13 (Homo sapiens, UniProt P45452).
T2 construct: made in house; host or cells: baculovirus / insect cells
The description is as above. It counts as biochemical. The protocol: as §1, §2
The MMP-13 was obtained as a proenzyme from a full-length cDNA clone using baculovirus, as described by V. A. Luckow, “Insect Cell Expression Technology,” Protein Engineering: Principles and Practice, pp. 183-218 (edited by J. L. Cleland et al., Wiley-Liss, Inc., 1996). The expressed proenzyme was first purified over a heparin agarose column, and then over a chelating zinc chloride column. The proenzyme was then activated by APMA for use in the assay. Further details on baculovirus expression systems may be found in, for example, Luckow et al., J. Virol., 67, 4566-79 (1993). See also, O'Reilly et al, Baculovirus Expression Vectors: A Laboratory Manual (W.H. Freeman and Co., New York, N.Y., 1992). See also, King et al., The Baculovirus Expression System: A Laboratory Guide (Chapman & Hall, London, England, 1992).
as §3, §4, §5
as §6, with “Modifications were made in the non-linear regression method to allow a common control reaction rate and effective enzyme concentration to be shared between all dose-response relationships on a given assay plate. Since the substrate concentration was chosen to be at or below the Km, the apparent Ki's from this analysis were reported as Ki's without correction for the influence of substrate.” left out

Each structure is given as a SMILES string.

Turning to `O=C(NO)C1(S(=O)(=O)c2ccc(-c3cscc3-c3ccc(F)cc3)cc2)CCOCC1` [Example 132], the Ki on Human recombinant MMP-1 (Table 2) is over 10000 nM; on Human recombinant MMP-13 (Table 2), 71 nM.

On to `O=C(NO)C1(S(=O)(=O)c2ccc(-c3ccc(CCC(F)(F)C(F)(F)F)cc3)cc2)CCN(C2CC2)CC1` [Example 45], for which the inhibition constant Ki was over 10000 nM at Human recombinant MMP-1 (Table 1) and 0.46 nM at Human recombinant MMP-13 (Table 1).

Take `COCCN1CCC(C(=O)NO)(S(=O)(=O)c2ccc(-c3cnc(OCC(F)(F)C(F)(F)F)cn3)cc2)CC1` [Example 157]: the values for the Ki at Human recombinant MMP-1 (Table 2) and on Human recombinant MMP-13 (Table 2) were 9580 nM and 0.26 nM, respectively.

For `CCN1CCC(C(=O)NO)(S(=O)(=O)c2ccc(-c3ccc(-c4ccncc4)cc3)cc2)CC1` [Example 136], the Ki on Human recombinant MMP-1 (Table 2) came to 1070 nM; at Human recombinant MMP-13 (Table 2), 0.021 nM.

As to `CCN1CCC(C(=O)NO)(S(=O)(=O)c2ccc(-c3cnc(CCC(C)(F)F)cn3)cc2)CC1` [Example 64], the results for the Ki at Human recombinant MMP-1 (Table 1) and on Human recombinant MMP-13 (Table 1) were over 10000 nM and 0.296 nM, respectively.

Regarding `O=C(NO)C1(S(=O)(=O)c2ccc(-c3ccc(OCCCC(F)(F)F)cn3)cc2)CCOCC1` [Example 144], the Ki on Human recombinant MMP-1 (Table 2) amounted to 481 nM; on Human recombinant MMP-13 (Table 2), 0.007 nM.

Turning to `O=C(NO)C1(S(=O)(=O)c2ccc(-c3ccc(CCC(F)(F)C(F)(F)F)cn3)cc2)CCOCC1` [Example 36], the inhibition constant (Ki) on Human recombinant MMP-1 (Table 1) amounted to 4720 nM; on Human recombinant MMP-13 (Table 1), 0.0403 nM.

For the compound `CCc1csc(Nc2ccc(-c3ccc(S(=O)(=O)C4(C(=O)NO)CCOCC4)cc3)cc2)n1` [Example 124], the Ki at Human recombinant MMP-1 (Table 2) was over 2500 nM; at Human recombinant MMP-13 (Table 2), 3.3 nM.

Take `O=C(NO)C1(S(=O)(=O)c2ccc(-c3noc(-c4ccc(F)cc4)n3)cc2)CCOCC1` [Example 134]: the figures for the Ki at Human recombinant MMP-1 (Table 2) and at Human recombinant MMP-13 (Table 2) were 5910 nM and 1.76 nM, respectively.

With `CCCCOc1ccc(-c2ccc(S(=O)(=O)C3(C(=O)NO)CCN(CCOC)CC3)cc2)cc1` [Example 119], the Ki on Human recombinant MMP-1 (Table 2) came out at 1770 nM; at Human recombinant MMP-13 (Table 2), 0.018 nM.

As to `O=C(NO)C1(S(=O)(=O)c2ccc(-c3cnc(CCC(F)(F)C(F)(F)F)nc3)cc2)CCOCC1` [Example 142], the values for the Ki on Human recombinant MMP-1 (Table 2) and on Human recombinant MMP-13 (Table 2) were over 10000 nM and 22.5 nM, respectively.

On to `O=C(NO)C1(S(=O)(=O)c2ccc(-c3cnc(OCC(F)(F)C(F)(F)F)cn3)cc2)CCN(C2CC2)CC1` [Example 156], for which the inhibition constant (Ki) was found to be 7470 nM at Human recombinant MMP-1 (Table 2) and 0.31 nM at Human recombinant MMP-13 (Table 2).

For the compound `CC(C)(C)N1CCC(C(=O)NO)(S(=O)(=O)c2ccc(-c3ccc(CCCC(F)(F)F)cc3)cc2)CC1` [Example 48], the inhibitory constant (Ki) was over 10000 nM on Human recombinant MMP-1 (Table 1) and 0.221 nM at Human recombinant MMP-13 (Table 1).

As to `CCN1CCC(C(=O)NO)(S(=O)(=O)c2ccc(-c3ccc(Oc4ccccc4)cc3)cc2)CC1` [Example 135], the Ki at Human recombinant MMP-1 (Table 2) was over 10000 nM; at Human recombinant MMP-13 (Table 2), 0.742 nM.

For `O=C(NO)C1(S(=O)(=O)c2ccc(-c3ccc(CCC(F)(C(F)(F)F)C(F)(F)F)cn3)cc2)CCOCC1` [Example 133], the Ki at Human recombinant MMP-1 (Table 2) is 7400 nM; on Human recombinant MMP-13 (Table 2), 2.06 nM.

With `COCCN1CCC(C(=O)NO)(S(=O)(=O)c2ccc(-c3cnc(CCC(C)(F)F)cn3)cc2)CC1` [Example 65], the inhibitory constant (Ki) at Human recombinant MMP-1 (Table 1) is over 10000 nM; at Human recombinant MMP-13 (Table 1), 0.27 nM.

Take `O=C(NO)C1(S(=O)(=O)c2ccc(-c3ncccn3)cc2)CCOCC1` [Example 121]: the inhibition constant Ki on Human recombinant MMP-1 (Table 2) amounted to 1600 nM; at Human recombinant MMP-13 (Table 2) it was 4.86 nM.

On to `CC(F)(F)CCc1ccc(-c2ccc(S(=O)(=O)C3(C(=O)NO)CCN(C4CC4)CC3)cc2)cc1` [Example 59], for which the results for the inhibition constant Ki at Human recombinant MMP-1 (Table 1) and on Human recombinant MMP-13 (Table 1) were 2170 nM and 0.05 nM, respectively.

Regarding `CCCCOc1ccc(-c2ccc(S(=O)(=O)C3(C(=O)NO)CCN(C4CC4)CC3)cc2)cc1` [Example 120], the inhibition constant (Ki) at Human recombinant MMP-1 (Table 2) was 2460 nM; at Human recombinant MMP-13 (Table 2) it was 0.082 nM.

`CCN1CCC(C(=O)NO)(S(=O)(=O)c2ccc(-c3noc(-c4ccncc4)n3)cc2)CC1` [Example 148]: the Ki at Human recombinant MMP-1 (Table 2) was over 10000 nM; on Human recombinant MMP-13 (Table 2), 5.7 nM.

Take `O=C(NO)C1(S(=O)(=O)c2ccc(-c3ccc(-c4ccc(OC(F)(F)F)cc4)cn3)cc2)CCN(C2CC2)CC1` [Example 145]: the results for the inhibition constant (Ki) at Human recombinant MMP-1 (Table 2) and on Human recombinant MMP-13 (Table 2) were 3390 nM and 0.26 nM, respectively.

`O=C(NO)C1(S(=O)(=O)c2ccc(-c3cnc(-c4cccs4)cn3)cc2)CCOCC1` [Example 160]: the Ki is over 10000 nM on Human recombinant MMP-1 (Table 2) and 0.7 nM at Human recombinant MMP-13 (Table 2).

Take `CCN1CCC(C(=O)NO)(S(=O)(=O)c2ccc(-c3noc(-c4ccc(C(F)(F)F)cc4)n3)cc2)CC1` [Example 149]: the Ki is over 10000 nM at Human recombinant MMP-1 (Table 2) and 0.45 nM on Human recombinant MMP-13 (Table 2).

For the compound `O=C(NO)C1(S(=O)(=O)c2ccc(-c3ccc(-c4ccccc4)cn3)cc2)CCN(C2CC2)CC1` [Example 151], the figures for the Ki on Human recombinant MMP-1 (Table 2) and on Human recombinant MMP-13 (Table 2) were 391 nM and 0.05 nM, respectively.

Consider `O=C(NO)C1(S(=O)(=O)c2ccc(-c3ccc(CCCC(F)F)cc3)cc2)CCOCC1` [Example 57], for which the inhibitory constant (Ki) at Human recombinant MMP-1 (Table 1) amounted to 2120 nM; at Human recombinant MMP-13 (Table 1) it was 0.04 nM.

For the compound `O=C(NO)C1(S(=O)(=O)c2ccc(-c3ccc(CCC4CCCCC4)cn3)cc2)CCOCC1` [Example 129], the inhibitory constant (Ki) worked out at 4410 nM on Human recombinant MMP-1 (Table 2) and 0.383 nM on Human recombinant MMP-13 (Table 2).

Take `CCCCc1ccc(-c2ccc(S(=O)(=O)C3(C(=O)NO)CCN(CC)CC3)cc2)cn1` [Example 139]: the Ki on Human recombinant MMP-1 (Table 2) was over 10000 nM; at Human recombinant MMP-13 (Table 2) it was 5.22 nM.

With `O=C(NO)C1(S(=O)(=O)c2ccc(-c3cnc(OCC(F)(F)C(F)(F)F)cn3)cc2)CCOCC1` [Example 154], the inhibitory constant (Ki) at Human recombinant MMP-1 (Table 2) was determined as 1840 nM; at Human recombinant MMP-13 (Table 2), 0.12 nM.

In the case of `O=C(NO)C1(S(=O)(=O)c2ccc(-c3ccc(CCCC(F)(F)F)cc3)cc2)CCOCC1` [Example 42], the inhibitory constant (Ki) is 2710 nM at Human recombinant MMP-1 (Table 1) and 0.072 nM on Human recombinant MMP-13 (Table 1).

Consider `O=C(NO)C1(S(=O)(=O)c2ccc(-c3ccc(-n4ccnc4)cc3)cc2)CCOCC1` [Example 127], for which the Ki came out at 1010 nM at Human recombinant MMP-1 (Table 2) and 0.03 nM on Human recombinant MMP-13 (Table 2).

The values above are taken from patent publication US20060074243A1, “Hydroxamic acid and amide compounds and their use as protease inhibitors” (Pharmacia Corporation, priority 2002, published 2006).
